Measured values: the supplement of paper PMC11208160
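Note: IS621 bridge recombinase in Escherichia coli cells against a fixed T5 target plasmid.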

Experiment: recombinant UMI read abundance after kanamycin selection (control-corrected) (log10(CPM+1)); higher = more efficient recombination; extreme values may be limits of the assay; sequences stand for … in AGTGCAGAGAAAATCGGCCAGTTTTCTCTGCCTGCAGTCCGCATGCCGTGGGACCCCTTGGGTTCTAACCTGTTGCCTAGATTTATGCAGCGGACTGCCTTTCTCCCAAAGTGATAAACCGG…AGGTTGGTTTCACT; site = the 11-nt donor
Procedure, shortened: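 Pooled Escherichia coli screen of donor and donor-binding-loop pairs for the IS621 bridge recombinase. Each pair sits with a 12-nt UMI on a plasmid carrying a promoterless kanamycin gene. The library was co-electroporated with a target plasmid encoding a fixed target and T7-inducible recombinase, then plated with IPTG (0.07 mM) plus kanamycin, or unselected, each in two replicates. Recombinant UMIs were PCR-amplified across the donor–target junction and sequenced. Counts became CPM, averaged over replicates, scaled by control-derived factors and reported as log10(CPM+1).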
With “AGGTAGGCATGGACCGGTTTTCCCGGTAATCCGTATTTGGC (site AAGTAGGCTGC)” the “recombinant UMI read abundance (log10)” value was 0.588. In the case of “AGGTAGGCATGGACCGGTTTTCCCGGTAATCCGTATTTGGC (site ACGTAGGCTGC)”, the “recombinant UMI read abundance (log10)” value is reported as 1.87. In the case of “AGGTAGGCATGGACCGGTTTTCCCGGTAATCCGTATTTGGC (site AGGTAGGCTGC)”, the “recombinant UMI read abundance (log10)” value is reported as 2.65. With “AGGTAGGCATGGACCGGTTTTCCCGGTAATCCGTATTTGGC (site ATGTAGGCTGC)” the “recombinant UMI read abundance (log10)” value was 0.775. For “AGGTGCGCATGGACCGGTTTTCCCGGTAATCCGTATTTGTA (site AGGTGCGCTTA)”, the “recombinant UMI read abundance (log10)” value was 1.81. With “AGGTGGACATGGACCGGTTTTCCCGGTAATCCGTATTTGCA (site AGGAAGACTTG)” the “recombinant UMI read abundance (log10)” value was 1.46. With “AGGTGGACATGGACCGGTTTTCCCGGTAATCCGTATTTGCA (site AGGTGGACTTG)” the “recombinant UMI read abundance (log10)” value was 2.73. In the case of “AGGTGGACATGGACCGGTTTTCCCGGTAATCCGTATTTGTA (site AGGTGGACTTA)”, the “recombinant UMI read abundance (log10)” value is reported as 2.2. With “AGGTGGCCATGGACCGGTTTTCCCGGTAATCCGTATTTGCC (site AGGTGGCCTGG)” the “recombinant UMI read abundance (log10)” value was 0. In the case of “AGGTTCACATGGACCGGTTTTCCCGGTAATCCGTATTTGCC (site AGGTTCACTGG)”, the “recombinant UMI read abundance (log10)” value is reported as 2.11. In the case of “AGGTTCCCATGGACCGGTTTTCCCGGTAATCCGTATTTGGG (site AGGTTCCCTCA)”, the “recombinant UMI read abundance (log10)” value is reported as 0.0189. With “AGGTTCCCATGGACCGGTTTTCCCGGTAATCCGTATTTGGG (site AGGTTCCCTCC)” the “recombinant UMI read abundance (log10)” value was 0.0153. In the case of “AGGTTCCCATGGACCGGTTTTCCCGGTAATCCGTATTTGGG (site AGGTTCCCTCG)”, the “recombinant UMI read abundance (log10)” value is reported as 0.0155. In the case of “AGGTTCCCATGGACCGGTTTTCCCGGTAATCCGTATTTGGG (site AGGTTCCCTCT)”, the “recombinant UMI read abundance (log10)” value is reported as 0.0453. With “AGTAAAGCATGGACCGGTTTTCCCGGTAATCCGTATTTGCA (site AGTAAAGCTTG)” the “recombinant UMI read abundance (log10)” value was 1.97. For “AGTAACGCATGGACCGGTTTTCCCGGTAATCCGTATTTGGT (site AGTAACGCTAC)”, the “recombinant UMI read abundance (log10)” value was 1.7. With “AGTAAGACATGGACCGGTTTTCCCGGTAATCCGTATTTGAA (site AGGAAGACTTG)” the “recombinant UMI read abundance (log10)” value was 0. With “AGTAAGACATGGACCGGTTTTCCCGGTAATCCGTATTTGAA (site AGTAAGACTTT)” the “recombinant UMI read abundance (log10)” value was 1.27. For “AGTAAGACATGGACCGGTTTTCCCGGTAATCCGTATTTGTC (site AGTAAGACTGA)”, the “recombinant UMI read abundance (log10)” value was 1.36. With “AGTAAGCCATGGACCGGTTTTCCCGGTAATCCGTATTTGCA (site AGGAAGACTTG)” the “recombinant UMI read abundance (log10)” value was 0. For “AGTAAGCCATGGACCGGTTTTCCCGGTAATCCGTATTTGCA (site AGTAAGCCTTG)”, the “recombinant UMI read abundance (log10)” value was 0.539. For “AGTAAGGCATGGACCGGTTTTCCCGGTAATCCGTATTTGCT (site AGAAAGGCTAG)”, the “recombinant UMI read abundance (log10)” value was 1.39. For “AGTAAGGCATGGACCGGTTTTCCCGGTAATCCGTATTTGCT (site AGCAAGGCTAG)”, the “recombinant UMI read abundance (log10)” value was 1.21. For “AGTAAGGCATGGACCGGTTTTCCCGGTAATCCGTATTTGCT (site AGGAAGGCTAG)”, the “recombinant UMI read abundance (log10)” value was 0.32. With “AGTAAGGCATGGACCGGTTTTCCCGGTAATCCGTATTTGCT (site AGTAAGGCTAG)” the “recombinant UMI read abundance (log10)” value was 2.75. With “AGTAAGTCATGGACCGGTTTTCCCGGTAATCCGTATTTGAA (site AGTAAGTCTTT)” the “recombinant UMI read abundance (log10)” value was 2.1. With “AGTAGCACATGGACCGGTTTTCCCGGTAATCCGTATTTGAG (site AGTAGCACTCT)” the “recombinant UMI read abundance (log10)” value was 1.24. With “AGTAGGACATGGACCGGTTTTCCCGGTAATCCGTATTTGCA (site AGGAAGACTTG)” the “recombinant UMI read abundance (log10)” value was 1.45. For “AGTAGGACATGGACCGGTTTTCCCGGTAATCCGTATTTGCA (site AGTAGGACTTG)”, the “recombinant UMI read abundance (log10)” value was 2.91. In the case of “AGTAGGGCATGGACCGGTTTTCCCGGTAATCCGTATTTGAG (site AGTAGGGCTCT)”, the “recombinant UMI read abundance (log10)” value is reported as 1.41. In the case of “AGTCAAGCATGGACCGGTTTTCCCGGTAATCCGTATTTGAA (site AGTCAAGCTTT)”, the “recombinant UMI read abundance (log10)” value is reported as 1.39. For “AGTCCAACATGGACCGGTTTTCCCGGTAATCCGTATTTGTA (site AGTCCAACTTA)”, the “recombinant UMI read abundance (log10)” value was 0.694. For “AGTCCAACATGGACCGGTTTTCCCGGTAATCCGTATTTGTA (site CGTCCAACTTA)”, the “recombinant UMI read abundance (log10)” value was 0. For “AGTCCAACATGGACCGGTTTTCCCGGTAATCCGTATTTGTA (site GGTCCAACTTA)”, the “recombinant UMI read abundance (log10)” value was 0.172. With “AGTCCAACATGGACCGGTTTTCCCGGTAATCCGTATTTGTA (site TGTCCAACTTA)” the “recombinant UMI read abundance (log10)” value was 0.141. In the case of “AGTCCTTCATGGACCGGTTTTCCCGGTAATCCGTATTTGCA (site AGTCCTTCTTG)”, the “recombinant UMI read abundance (log10)” value is reported as 1.24. For “AGTCTACCATGGACCGGTTTTCCCGGTAATCCGTATTTGCT (site AGTCTACCTAG)”, the “recombinant UMI read abundance (log10)” value was 0. For “AGTGAGACATGGACCGGTTTTCCCGGTAATCCGTATTTGGT (site AATGAGACTAC)”, the “recombinant UMI read abundance (log10)” value was 0.439.
